In article PMC10384408, “Anticancer Tungstenocenes with a Diverse Set of (O,O–), (O,S–) and (O,N–) Chelates—A Detailed Biological Study Using an Improved Evaluation via 3D Spheroid Models” (Pharmaceutics, 2023):

Assays:
MCF-7 cells [1] = assay: Resazurin assay, MCF-7 2D monolayer; format: cell-based, human; settings: 96 h
Method in brief: (§1)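 Monolayers seeded at 2 × 10^3 (HCT116, HT29) or 4 × 10^3 (MCF-7) cells per well and dosed with serial compound dilutions after 24 h. After 96 h exposure, resazurin added for 4 h; resorufin fluorescence read at 530 nm with 620 nm reference, cell-free blanks subtracted.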

[2] = Solubility in PBS (1% DMSO); format: physicochemical
Description: Stock solutions in DMSO of compounds 1–10 were utilized to determine the solubility in PBS by adding 1 vol% of the stock solution to a suitable amount of PBS. […] UV/Vis data were recorded on a Perkin Elmer Lambda 650 UV/Vis Spectrophotometer with a Peltier element for temperature control.

[3] = tested on: CH1/PA-1 (ovarian teratocarcinoma) cells; assay: MTT cytotoxicity assay, CH1/PA-1 monolayer; format: cell-based, human; settings: exposure time 96 h, mean ± SD
Method in brief: (§2)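 Monolayer cells seeded at 1 × 10^3 (CH1/PA-1), 2 × 10^3 (SW480), 3 × 10^3 (A549) or 7 × 10^3 (IMR-90) per well, preincubated 24 h, then exposed to serially diluted drug for 96 h. Viability by MTT (4 h), absorbance 550 nm (690 nm reference); IC50 interpolated from concentration-effect curves relative to untreated controls, ≥3 independent experiments.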

[4] = tested on: SW480 (colon carcinoma) cells; assay: MTT cytotoxicity assay, SW480 monolayer; format: cell-based, human; settings: exposure time 96 h, mean ± SD
Method in brief: as §2

HCT116 cells [5] = assay: Annexin V-FITC/PI apoptosis assay, HCT116; format: cell-based, human; settings: HCT116, 24 h, 200 µM; for ∑apoptotic cells [%]: sum of early and late
MCF-7 cells [6] = assay: Annexin V-FITC/PI apoptosis assay, MCF-7; settings: MCF-7, 24 h, 200 µM; for ∑apoptotic cells [%]: sum of early and late
[7] = tested on: MCF-7 multicellular tumor spheroids; assay: Resazurin assay, MCF-7 3D spheroids; format: cell-based, human; settings: 96 h; for IC50: spheroids
Method in brief: (§3)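 Spheroids formed from 400 HCT116, 400 HT29 or 800 MCF-7 cells in ultra-low attachment wells over 96 h, then exposed to serially diluted compounds for 96 h. Resazurin added with 12 h incubation; resorufin fluorescence read at 530 nm (reference 620 nm).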

HCT116 cells [8] = assay: Resazurin assay, HCT116 2D monolayer; format: cell-based, human; settings: 96 h
Method in brief: as §1

[9] = tested on: HT29 multicellular tumor spheroids; assay: Resazurin assay, HT29 3D spheroids; format: cell-based, human; settings: 96 h; for IC50: spheroids
Method in brief: as §3

[10] = tested on: HCT116 multicellular tumor spheroids; assay: Resazurin assay, HCT116 3D spheroids; format: cell-based, human; settings: 96 h; for IC50: spheroids
Method in brief: as §3

Row | Compound | IC50 (MCF-7 cells [1]) | Solubility in PBS (1% DMSO) [2] | IC50 [3] | IC50 [4] | early apoptotic cells [%] AV+ / PI- (HCT116 cells [5]) | late apoptotic cells [%] AV+ / PI+ (HCT116 cells [5]) | necrotic cells [%] AV- / PI+ (HCT116 cells [5]) | viable cells [%] AV- / PI- (HCT116 cells [5]) | ∑apoptotic cells [%] (HCT116 cells [5]) | early apoptotic cells [%] AV+ / PI- (MCF-7 cells [6]) | late apoptotic cells [%] AV+ / PI+ (MCF-7 cells [6]) | necrotic cells [%] AV- / PI+ (MCF-7 cells [6]) | viable cells [%] AV- / PI- (MCF-7 cells [6]) | ∑apoptotic cells [%] (MCF-7 cells [6]) | IC50 [7] | IC50 (HCT116 cells [8]) | IC50 [9] | IC50 [10] | other results
1 | Cc1cc(=S)c([O-])co1.F[P-](F)(F)(F)(F)F.[W+4].c1cc[cH-]c1.c1cc[cH-]c1 [Compound 8, Bis(η^5-cyclopentadienyl)[2-methyl-5-(oxo-κO)-pyran-4-(1H)-thionato-κS] tungsten(IV) hexafluorophosphate] | 163 ± 32 µM | 410 µg/mL | 93 ± 15 µM | 129 ± 14 µM | 5.5 ± 2.0% | 12.4 ± 2.4% | 2.8 ± 1.3% | 79.4 ± 3.5% | 17.9% | 1.2 ± 0.3% | 8.7 ± 6.9% | 2.7 ± 1.4% | 87.3 ± 8.3% | 9.9% | > 200 µM | > 200 µM | > 200 µM | 178 ± 14 µM | 
2 | F[P-](F)(F)(F)(F)F.O=C([O-])c1ccccn1.[W+4].c1cc[cH-]c1.c1cc[cH-]c1 [Compound 5, Bis(η^5-cyclopentadienyl)[2-(carboxylato-κO)-pyridine-κN]tungsten(IV) hexafluorophosphate] | > 200 µM | 180 µg/mL | > 200 µM | 147 ± 21 µM | 2.0 ± 1.1% | 2.9 ± 0.7% | 2.4 ± 1.2% | 92.7 ± 1.3% | 4.9% | 1.3 ± 0.7% | 7.9 ± 5.3% | 4.2 ±2.2% |  | 9.2% | > 200 µM | > 200 µM | > 200 µM | > 200 µM | 
3 | CCc1occc(=O)c1[O-].F[P-](F)(F)(F)(F)F.[W+4].c1cc[cH-]c1.c1cc[cH-]c1 [Compound 9, Bis(η^5-cyclopentadienyl)[2-ethyl-3-(oxo-κO)-4-(1H)-pyran-4-ato-κO] tungsten(IV) hexafluorophosphate] | 147 ± 15 µM | 550 µg/mL | > 200 µM | 101 ± 15 µM | 1.5 ± 0.8% | 2.3 ± 0.3% | 2.3 ± 0.4% | 93.9 ± 0.5% | 3.8% | 1.6 ± 1.0% | 8.4 ± 5.5% | 2.9 ± 1.8% | 87.2 ± 7.2% |  | > 200 µM | > 200 µM | > 200 µM | > 200 µM | 
4 | Cc1occc(=S)c1[O-].F[P-](F)(F)(F)(F)F.[W+4].c1cc[cH-]c1.c1cc[cH-]c1 [Compound 2, Bis(η^5-cyclopentadienyl)[2-methyl-3-(oxo-κO)-4-(1H)-pyran-4-thionato-κS]tungsten(IV) hexafluorophosphate] | 66 ± 12 µM | 250 µg/mL | 24 ± 3 µM | 36 ± 7 µM | 7.2 ± 1.9% | 27.1 ± 17.6% | 2.2 ± 0.2% | 63.5 ± 18.6% |  | 7.4 ± 2.7% | 22.7 ± 4.5% | 14.9 ± 8.3% | 55.1 ± 10.1% |  | > 200 µM | 98 ± 12 µM | > 200 µM | 158 ± 28 µM | ratio 3D/2D of IC50 values, MCF-7 [7]: > 3.0; ratio 3D/2D of IC50 values, HT29 [9]: > 3.8; ratio 3D/2D of IC50 values, HCT116 [10]: 1.6
